Experimental data as given in patent US5220042A, “1,4-benzoquinone derivatives and benzene derivatives, and process for preparing the same” (priority 1984, dated 1993).
Where two headings read alike, the source gives them in different places.

Legend:
[1] = tested on: histamine release from lung fragments; experiment: Inhibition of histamine release from sensitized guinea pig lung fragments; format: cell-based, guinea pig (Hartley strain); conditions: Cavia porcellus, read-out: Inhibition ratio (%) Histamine; for inhibition at 3 µM: Table 2, dose 3 μM; for inhibition at 30 µM: Table 2, dose 30 μM
Protocol: Inhibitory activities on the release of SRS-A and histamine of the present compounds were determined.
A male guinea pig (Hartley strain) (body weight: about 300 g) was sensitized by a method according to P. Anderson: "Int. Archs. Allergey appln. Immunol., Vol. 64, pages 249-258 (1981). Thus, 30 mg/kg of cyclophosphamide was intraperitoneally administered to the guinea pig, and 2 days after 1 microgram of ovalbumin (manufactured by Sigma Chemical Co., St. Louis, Mo. U. S. A.) together with 10 mg of aluminium hydroxide gel were intraperitoneally administered so as to have the animal sesitized.
50 Days after the sesitization, the animal was killed by exsanguination, and the lung was isolated from the animal and was perfused with 20 ml of Tyrode's solution, then immersed in an ice-cooled Tyrode's solution. The parenchyma of the lung was cut by using McIlwain-type tissue chopper to make it into fragments of lung having 2 mm square and the fragments were washed with Tyrode's solution. 400 Milligrams of sectiles of lung were suspended in 3.6 ml of Tyrode's solution, and this suspension was preincubated at 37° C. for 5 minutes, then 4 microliters of dimethyl sulfoxide solution of the test compound, in the case of control 4 microliters of dimethyl sulfoxide alone was added to the suspension. 5 Minutes after, 0.4 ml of 100 micrograms/ml of ovalbumin solution added so as to release SRS-A for 10 minutes. The suspension was ice-cooled and filtered through gauze, the filtrate was centrifuged at 2,000 rpm for 10 minutes and the supernatant was collected. The supernatant was stored in freezed state at -80° C. until bio-assay was conducted.
Amounts of SRS-A and histamine contained in the supernatant were determined by bio-assay using ileum of guinea pig.
A piece of the ileum (2-3 cm of length) positioned from 15-25 cm from the opening portion of ileocecum was isolated from a male guinea pig (Hartley strain) (body weight: 400-600 g) which was fasted for 24 hours. The piece of ileum was hanged vertically in a Magnus tube which was filled with 10 ml of Tyrode's solution containing 10^-7 M of atropine sulfate under air stream conditions. The isotonic contraction of the piece of the ileum was measured at 0.5 g of load by using an isotonic transducer "TD-112S" (manufactured by Nihon Koden Co., Ltd.). The measurements were carried out after the reaction to histamine of the piece of ileum was kept constant. Bioassay of histamine was measured by using the value of contraction shown in 30 seconds after the addition of the supernatant. Bioassay of on SRS-A was measured by using the value of contraction shown at 2 minutes after the addition of the supernatant in the presence of 10^-6 M of pyrilamine (manufactured by Sigma Chemical Co.), and compared with the standard curve of crude SRS-A released from the fragments of the lung.

[2] = tested on: SRS-A release on anaphylaxis in abdominal cavity; experiment: SRS-A releasing inhibition test on anaphylaxis in abdominal cavity of rats; format: in vivo, rat (Sprague-Dawley strain); conditions: oral, 3 hours before anaphylaxis; dose not given
Protocol: SRS-A and histamine releasing inhibition test on anaphylaxis in abdominal cavity of rats.
Male or female rats (Sprague-Dawley strain, delivered from Charles River, Japan Ltd., Tokyo) of 6-7 week age were used as the test animals. The test animals were devided into a group consisting of 6 animals in one group depending on their body weight. The animals were fasted overnight. The test was conducted by a method according to P. T. Orange et al.: "J. Immunol., Vol. 105", pages 1087-1095 (1970).
1 Milliliter each of twofold diluted anti-ovalbumin serm of rat was intraperitoneally injected to each of the test animal so as to have the rat sensitized. 2 Hours after the sensitization, 5 ml of Tyrode's solution containing 2 mg of ovalbumin and 250 micrograms of heparin sodium was intraperitoneally administered to the test animal to cause anaphylaxis. 5 Minutes after, the test animal was stunned by the blow on the head and was exsanguinated and killed by cervical incision. Additional 5 minutes later, the abdominal fluid was collected from the opening of the abdomen. The fluid collected was centrifuged at 4° C., first at 800 rpm, then at 2,500 rpm and the supernatant was collected, and stored at -80° C. until the bioassay was conducted. […]
The amount of SRS-A and histamine contained in the collected abdominal fluid was measured by a method similar to that employed in Pharmacological test-2.
Bio-assay of the collected abdominal fluid was conducted by using ileum of guinea pig which was treated with atropine. […] The isotonic contraction of the piece of the ileum was measured at 0.5 g of load by using an isotonic transducer "TD-112S" (manufactured by Nihon Koden Co., Ltd.). The measurements were recorded on an ink-writing recorder.
The amount of SRS-A was measured by using the value of contraction shown after the addition of 0.2-0.5 ml of the collected fluid in the presence of 10^-7 M of pyrilamine (antihistaminic agent), said value of the contraction was calculated as contraction activity caused by 5 ng of histamine. […]

[3] = tested on: SRS-A release from lung fragments; experiment: Inhibition of SRS-A release from sensitized guinea pig lung fragments; format: cell-based, guinea pig (Hartley strain); conditions: Cavia porcellus
Method in brief: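 Lung fragments from ovalbumin-sensitized male Hartley guinea pigs were preincubated 5 min at 37 °C in Tyrode's, given compound in DMSO for 5 min, then challenged with ovalbumin for 10 min. Released histamine was bioassayed by guinea pig ileum contraction at 30 s. SRS-A was read at 2 min with 10^-6 M pyrilamine against a crude SRS-A standard curve.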

[4] = Table 2, dose 3 μM, read-out: Inhibition ratio (%) SRS-A
[5] = Table 2, dose 30 μM, read-out: Inhibition ratio (%) SRS-A
[6] = Table 2B, 3 μM, read-out: Inhibitory activities on SRS-A (%)
[7] = Table 2B, 30 μM, read-out: Inhibitory activities on SRS-A (%)

SMILES | inhibition at 3 µM [1] | inhibition at 30 µM [1] | Inhibitory rate (%) SRS-A [2] | inhibition at 3 µM [3, 4] | inhibition at 30 µM [3, 5] | inhibition at 3 µM [3, 6] | inhibition at 30 µM [3, 7]
COC1=CC(=O)C(OC)=C(CCCCCC2=C(OC)C(=O)C=C(OC)C2=O)C1=O [Test Compound No. 9, 2,2'-Pentamethylenebis(3,6-dimethoxy-1,4-benzoquinone)] | -15% | 4.1% | 4.9% | 50.3% | > 94.8% | 50.3% | 94.2%
COC1=CC(=O)C(OC)=C(CCCCCCCCCC2=C(OC)C(=O)C=C(OC)C2=O)C1=O [Test Compound No. 13, 2,2'-Nonamethylenebis(3,6-dimethoxy-1,4-benzoquinone)] | -2.7% | -14.9% | 25.8% | 22.4% | 43.9% | 22.4% | 43.9%
COC1=CC(=O)C(OC)=C(CCCCCC#CCCCCCC2=C(OC)C(=O)C=C(OC)C2=O)C1=O [Test Compound No. 16, 2,2'-(6-Dodecynylene)bis(3,6-dimethoxy-1,4-benzoquinone)] |  |  | 15.5% | 23.4% | 43.9% | 23.4% | 43.9%
